Converted amounts (≈) assume the structure as drawn.
What was measured:
Streptococcus pneumoniae [1] = assay: Ratio of MBC to MIC for cephalosporin-resistant Streptococcus pneumoniae ATCC 51916 assessed as inhibition of bacterial growth measured after 18 to 20 hrs by CLSI protocol based broth microdilution method; type: functional; conditions: time 18-20 hrs
Enterococcus faecalis = assay: Ratio of MBC to MIC for vancomycin-resistant Enterococcus faecalis ATCC 51299 assessed as inhibition of bacterial growth measured after 18 to 20 hrs by CLSI protocol based broth microdilution method; type: functional; conditions: time 18-20 hrs
Listeria monocytogenes = assay: Antibacterial activity against Listeria monocytogenes ATCC 19111 assessed as inhibition of bacterial growth measured after 18 to 20 hrs by CLSI protocol based broth microdilution method; type: functional; conditions: time 18-20 hrs
Streptococcus pneumoniae [2] = assay: Antibacterial activity against methicillin-resistant Streptococcus pneumoniae ATCC 700677 assessed as inhibition of bacterial growth measured after 18 to 20 hrs by CLSI protocol based broth microdilution method; type: functional; conditions: time 18-20 hrs
[3] = Cytotoxicity against human Caco-2 cells assessed as cell viability at 64 ug/ml incubated for 2 hrs by MTS assay relative to control; type: cell-based; conditions: at 64 µg/mL, read-out: Activity
Staphylococcus aureus [4] = assay: Ratio of MIC for methicillin-resistant Staphylococcus aureus USA400 NRS123 measured after 13th passage to MIC for methicillin-resistant Staphylococcus aureus USA400 NRS123 measured after 18 to 20 hrs by broth microdilution assay; type: functional
J774 = assay: Cytotoxicity against mouse J774 cells assessed as cell viability at 32 ug/ml incubated for 2 hrs by MTS assay; type: cell-based; conditions: j774, 2 h, dose 32 µg/ml
Staphylococcus aureus [5] = assay: microbe, parasite or virus in culture; conditions: ATCC 6538
Staphylococcus aureus [6] = assay: microbe, parasite or virus in culture; conditions: NRS119

C/C(=N\NC(=N)N)c1ccc(Nc2nc(-c3ccc(C)cc3)cs2)cc1
Ratio (Streptococcus pneumoniae [1]): 1 | Ratio (Enterococcus faecalis): 1 | MBC (Listeria monocytogenes): 2 µg/mL (≈ 5.49 µM) | MIC (Listeria monocytogenes): 1 µg/mL (≈ 2.74 µM) | MBC (Streptococcus pneumoniae [2]): 8 µg/mL (≈ 21.9 µM) | MIC (Streptococcus pneumoniae [2]): 2 µg/mL (≈ 5.49 µM) | viability at 2 h, 64 ug/ml [3]: 100% | Ratio (Staphylococcus aureus [4]): 1 | Activity (J774): Non-Toxic | MBC (Staphylococcus aureus [5]): 4 µg/mL (≈ 11 µM) | MIC (Staphylococcus aureus [5]): 2 µg/mL (≈ 5.49 µM) | MBC (Staphylococcus aureus [6]): 4 µg/mL (≈ 11 µM) | MIC (Staphylococcus aureus [6]): 2 µg/mL (≈ 5.49 µM)
